Assay results as given in PubChem BioAssay AID2060344 (Molecular Pharmacology Branch, DTP, NCI, 2025).

System: SK-MEL-2 multi-cell spheroids, viability
Experiment: Anticancer human tumor SK-MEL-2 cell line growth inhibition [TAK];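 note: spheroids exposed to drugs for seven days before readout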;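 for viability, T/C: percent of DMSO vehicle control luminescence so 100% = untreated viability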
Details: for IC50: curve of first compound; for viability, T/C: stronger effect = lower value
Description: Combinatorial screen of targeted agents with TAK-243 and ipatasertib in multi-cell type tumor spheroids
A high-throughput screen of multi-cell type tumor spheroids was designed to identify active combinations of targeted small molecules and TAK-243 or ipatasertib. Complex spheroids include a stromal component modeled by human endothelial cells (HUVEC) and fibroblasts modeled by human mesenchymal stem cells (MSCs). The concentration ranges selected for each drug and investigational agent were based upon clinically achievable concentrations if the clinical Cmax of the agent was known.
Compounds. The drugs and investigational agents: TAK-243 (785004), ipatasertib (767898), everolimus (733504), selumetinib (741078), bortezomib (756655), trametinib (758246), ixazomib (758254), vemurafenib (761431), dabrafenib (764134), sapanisertib (764658), alpelisib (765974), and copanlisib (816437), were obtained from the National Cancer Institute (NCI) Developmental Therapeutics Program Chemical Repository. The FDA-approved anticancer drug set is available from the NCI Developmental Therapeutics Program. […] The stock solutions were prepared in dimethyl sulfoxide (DMSO, Sigma-Aldrich, St. Louis, MO, cat. D2650) at 800-fold the tested concentration and stored at -70 degrees C prior to their use. All drugs and investigational agents were tested over a range starting from a high concentration at or near the clinical Cmax and decreasing in half-log increments. If the clinical Cmax for an agent had not been determined, the highest concentration tested was 10 microM.
NCI60 Cell Culture. NCI60 cell lines were obtained from the NCI Developmental Therapeutics Program Tumor Repository. For each lot of cells, the Repository performed Applied Biosystems AmpFLSTR Identifiler testing with PCR amplification to confirm consistency with the published Identifier STR profile for each cell line. Cells were kept in continuous culture for no more than 20 passages. The optimal seeding densities for each of the cell lines at each time point assessed were determined prior to performing the concentration response studies. Briefly, the NCI60 human tumor lines were grown as monolayers in RPMI 1640 medium supplemented with 10% FBS and 2 mmol/L L-glutamine.
An additional 2 lines were from the NCI60 cell line panel including melanomas, MALME-3M and SK-MEL-2. Pooled donor human umbilical vein endothelial cells (HUVEC, Lonza, cat. CC-2519) and human mesenchymal stem cells (hMSC, Lonza, cat. PT-2501) were purchased from Lonza (Walkersville, MD).
PDMR cell lines were grown in complete medium (DC medium): Dulbecco's modified Eagle's medium (DMEM)/F12 supplemented with 5% fetal bovine serum (FBS), 2 mM L-glutamine, 100 U/mL penicillin and 100 µg/ml streptomycin, 0.4 µg/ml hydrocortisone, 10 ng/ml epidermal growth factor (EGF) recombinant human protein, 24 µg/mL adenine, and 0.1 mg/mL primocin. During culture from frozen stock vials, PDMR cells were cultured in the same medium containing 10 µM Y-27632 (see Table 3). The PDCs were cultured in complete DMEM/F12 media without 10 microM Y-27632 dihydrochloride for at least two passages prior to the screen. The pooled donor HUVEC and hMSC were cultured in endothelial cell growth medium 2 (PromoCell, Heidelberg, Germany, cat. C-22011) and mesenchymal stem cell growth medium 2 (PromoCell, cat. C-28009), respectively. For all experiments, HUVEC and hMSC were used at passages </=5.
For the pre-screen, cell seeding densities were determined from a titration spanning the range from 5,000 to 313 cells per well. The mct-spheroids including 60% malignant cells, 25% HUVEC and 15% MSC dispensed as a mixture into U-bottom Ultra-Low Attachment 384-well plates (Corning, NY)
High-throughput Drug Combination Screening.
Prior to their inoculation into 384-well plates, malignant cells, HUVEC, and hMSC were removed from T flasks using TrypLE express (Thermo Fisher Scientific, cat. 12605036) and harvested by centrifugation for 5 min at 233 x g. […]

In the case of `CC(C)CC(NC(=O)CNC(=O)c1cc(Cl)ccc1Cl)B1OC(=O)CC(CC(=O)O)(C(=O)O)O1` (stereo not given) + CC(C)NCC(C(=O)N1CCN(c2ncnc3c2C(C)CC3O)CC1)c1ccc(Cl)cc1, the IC50 (second compound 0.3 µM) is reported as 17.1 nM, the IC50 (second compound 0.949 µM) is reported as 12.8 nM and the IC50 (second compound 3 µM) is reported as 5.07 nM. It also gave an IC50 (second compound 9.49 µM) of 2.04 nM, an IC50 (second compound 30 µM) of less than 0.316 nM and a viability, T/C (second compound 0.3 µM, first compound 0.000316 µM) of 94.8%. For the same compound, the viability, T/C (second compound 0.3 µM, first compound 0.001 µM) was 94.7%, the viability, T/C (second compound 0.3 µM, first compound 0.00316 µM) was 85% and the viability, T/C (second compound 0.3 µM, first compound 0.01 µM) was 64.9%. The viability, T/C (second compound 0.3 µM, first compound 0.0316 µM) was 32.8%, the viability, T/C (second compound 0.3 µM, first compound 0.1 µM) was 5.51% and the viability, T/C (second compound 0.949 µM, first compound 0.000316 µM) was 81.3%. It also gave a viability, T/C (second compound 0.949 µM, first compound 0.001 µM) of 76.5%, a viability, T/C (second compound 0.949 µM, first compound 0.00316 µM) of 70.3% and a viability, T/C (second compound 0.949 µM, first compound 0.01 µM) of 59.5%. For the same compound, the viability, T/C (second compound 0.949 µM, first compound 0.0316 µM) was 20.2%, the viability, T/C (second compound 0.949 µM, first compound 0.1 µM) was 6.05% and the viability, T/C (second compound 3 µM, first compound 0.000316 µM) was 70%. The viability, T/C (second compound 3 µM, first compound 0.001 µM) was 67%, the viability, T/C (second compound 3 µM, first compound 0.00316 µM) was 53.8% and the viability, T/C (second compound 3 µM, first compound 0.01 µM) was 43.3%. The viability, T/C (second compound 3 µM, first compound 0.0316 µM) was 20.2%, the viability, T/C (second compound 3 µM, first compound 0.1 µM) was 5.6% and the viability, T/C (second compound 9.49 µM, first compound 0.000316 µM) was 52.6%. For the same compound, the viability, T/C (second compound 9.49 µM, first compound 0.001 µM) was 55.7%, the viability, T/C (second compound 9.49 µM, first compound 0.00316 µM) was 44.2% and the viability, T/C (second compound 9.49 µM, first compound 0.01 µM) was 40.3%. For the same compound, the viability, T/C (second compound 9.49 µM, first compound 0.0316 µM) was 17.9%, the viability, T/C (second compound 9.49 µM, first compound 0.1 µM) was 5.27% and the viability, T/C (second compound 30 µM, first compound 0.000316 µM) was 47.8%. It also gave a viability, T/C (second compound 30 µM, first compound 0.001 µM) of 47.5%, a viability, T/C (second compound 30 µM, first compound 0.00316 µM) of 41.7% and a viability, T/C (second compound 30 µM, first compound 0.01 µM) of 33.5%. It also gave a viability, T/C (second compound 30 µM, first compound 0.0316 µM) of 14.4% and a viability, T/C (second compound 30 µM, first compound 0.1 µM) of 4.44%.
Work on `Cn1cnc2c(F)c(Nc3ccc(Br)cc3Cl)c(C(=O)NOCCO)cc21` + CC(C)NCC(C(=O)N1CCN(c2ncnc3c2C(C)CC3O)CC1)c1ccc(Cl)cc1 yielded an IC50 (second compound 0.3 µM) of less than 9.49 nM, an IC50 (second compound 0.949 µM) of less than 9.49 nM and an IC50 (second compound 3 µM) of less than 9.49 nM. The IC50 (second compound 9.49 µM) was less than 9.49 nM, the IC50 (second compound 30 µM) was less than 9.49 nM and the viability, T/C (second compound 0.3 µM, first compound 0.00949 µM) was 36.2%. The viability, T/C (second compound 0.3 µM, first compound 0.03 µM) was 15.6%, the viability, T/C (second compound 0.3 µM, first compound 0.0949 µM) was 5.04% and the viability, T/C (second compound 0.3 µM, first compound 0.3 µM) was 5.04%. It also gave a viability, T/C (second compound 0.3 µM, first compound 0.949 µM) of 2.85%, a viability, T/C (second compound 0.3 µM, first compound 3 µM) of 1.59% and a viability, T/C (second compound 0.949 µM, first compound 0.00949 µM) of 32.6%. For the same compound, the viability, T/C (second compound 0.949 µM, first compound 0.03 µM) was 12.9%, the viability, T/C (second compound 0.949 µM, first compound 0.0949 µM) was 4.14% and the viability, T/C (second compound 0.949 µM, first compound 0.3 µM) was 2.7%. For the same compound, the viability, T/C (second compound 0.949 µM, first compound 0.949 µM) was 1.73%, the viability, T/C (second compound 0.949 µM, first compound 3 µM) was 1.41% and the viability, T/C (second compound 3 µM, first compound 0.00949 µM) was 24.3%. For the same compound, the viability, T/C (second compound 3 µM, first compound 0.03 µM) was 10.2%, the viability, T/C (second compound 3 µM, first compound 0.0949 µM) was 2.52% and the viability, T/C (second compound 3 µM, first compound 0.3 µM) was 1.7%. The viability, T/C (second compound 3 µM, first compound 0.949 µM) was 1.41%, the viability, T/C (second compound 3 µM, first compound 3 µM) was 0.98% and the viability, T/C (second compound 9.49 µM, first compound 0.00949 µM) was 19.3%. It also gave a viability, T/C (second compound 9.49 µM, first compound 0.03 µM) of 9.42%, a viability, T/C (second compound 9.49 µM, first compound 0.0949 µM) of 2.79% and a viability, T/C (second compound 9.49 µM, first compound 0.3 µM) of 1.33%. The viability, T/C (second compound 9.49 µM, first compound 0.949 µM) was 0.9%, the viability, T/C (second compound 9.49 µM, first compound 3 µM) was 0.56% and the viability, T/C (second compound 30 µM, first compound 0.00949 µM) was 21.7%. For the same compound, the viability, T/C (second compound 30 µM, first compound 0.03 µM) was 8.51%, the viability, T/C (second compound 30 µM, first compound 0.0949 µM) was 2.57% and the viability, T/C (second compound 30 µM, first compound 0.3 µM) was 0.97%. The viability, T/C (second compound 30 µM, first compound 0.949 µM) was 0.37% and the viability, T/C (second compound 30 µM, first compound 3 µM) was 0.35%.
